pIC50: −log10 of the molar value. Where two headings read alike, the source gives them in different places.
Legend:
[1] = target: T1, Acetylcholinesterase (AChE) (Rattus norvegicus, UniProt P37136); experiment: biochemical; type: biochemical, Male Rats (Sprague Dawley), brain
T1 construct: The brain was removed and homogenised; from tissue; host or cells: rat brain (male Sprague Dawley), Triton X100 detergent supernatant of the EDTA-buffer pellet
Description: (i) Enzyme Source for AChE
5 Male Rats (Sprague Dawley) weighing approx 250 g were killed by CO2 overdose and cervical dislocation.
The brain was removed and homogenised (9 strokes at 840 rpm with 4 volumes of phosphate buffer pH 7.4+10 mM (EDTA) and centrifuged at 27,000 g for 30 minutes.
The supernatant was discarded and the pellet resuspended in phosphate buffer with 10 mM EDTA+1- Triton X100 (2 ml/g wet weight). The crude homogenate was centrifuged at 27,000 g for 30-40 minutes.
The pellet was discarded and the supernatant was dispensed into 0.5 ml aliquots and stored at -20° C. until required.
Phosphate Buffer (0.1M. pH 7.4)
Made up to 500 ml with distilled H2 O, pH 7.4.
0.5 ml aliquots of brain (enzyme solution) as prepared above were thawed out. 2 ml of phosphate buffer was added to each aliquot. 2 ml of the enzyme solution was incubated with 2 ml PDS for 60 minutes at 0° C. The composition of blank, control and test solutions are given below:
0.9 ml phosphate buffer (0.1 M, pH 7.4)
0.85 ml phosphate buffer (0.1M, pH 7.4)
0.05 ml acetylthiocholine (5.2 mM)
(§1) 0.8 ml phosphate buffer (0.1M, pH 7.4)
0.05 ml Acetylthiocholine 5.2 mM
Change in absorbance was measured at 30 second intervals for 3 minutes at […]. The control was taken as 100%. Inhibitor was calculated as a percentage of the control. A graph of Log of inhibitor conc. versus % control was plotted and IC5. values calculated by interpolation.

5-HT (serotonin) uptake = type: biochemical, rat (Sprague Dawley)
Description: (§2) One male rat (Sprague Dawley) weighing approx. 200-250 g was sacrificed by cervical dislocation. The brain was dissected out and the cerebellum discarded. The brain was then weighed and 10 ml ice cold sucrose (0.32M) added per gram tissue. […] The pellet was discarded and the supernatant retained (crude synaptosomal preparation).
(§3) All tubes were set up in triplicate. […] 100 μl of the prepared synaptosomal preparation was added to each tube and incubated for 5 minutes in a shaking water bath at 37° C. Any reaction was stopped by plunging the tubes into an ice water bath. ^3 H NA (10^-7 M) or ^3 H 5-HT ([…]) was added to each tube and incubated for 5 minutes in a shaking water bath at 37° C. Any reaction was stopped by plunging the tubes into an ice-water bath. Accumulated monoamines were collected using a Brandell Cell Harvester under mild vacuum. Filters were rinsed (2×) using 4 ml of ice-cold 0.9% saline. Scintillation fluid was added (4 ml/tube). Radioactivity was measured on a scintillation counter.
(§4) Non-specific values were subtracted from total values. The control was taken as 100%. Drug effects were calculated as a percentage of control inhibitor value. A graph of log of drug concentration versus % control was plotted and IC50 values were calculated by interpolation.

[2] = tested on: noradrenaline (NA) uptake; experiment: Monoamine Uptake Inhibition Assay, noradrenaline (synaptosomal preparation); type: biochemical, rat (Sprague Dawley); conditions: Table 1; form SALT; n = 5; read-out: IC50 NA UPTAKE
Description: as §2, §3, §4

[3] = target: T2, Butyrylcholinesterase (BChE) (Equus caballus, UniProt P81908); experiment: biochemical; conditions: for pIC50: Table 2
T2 construct: purchased Sigma c-7512
T2 sequence (P81908 whole entry): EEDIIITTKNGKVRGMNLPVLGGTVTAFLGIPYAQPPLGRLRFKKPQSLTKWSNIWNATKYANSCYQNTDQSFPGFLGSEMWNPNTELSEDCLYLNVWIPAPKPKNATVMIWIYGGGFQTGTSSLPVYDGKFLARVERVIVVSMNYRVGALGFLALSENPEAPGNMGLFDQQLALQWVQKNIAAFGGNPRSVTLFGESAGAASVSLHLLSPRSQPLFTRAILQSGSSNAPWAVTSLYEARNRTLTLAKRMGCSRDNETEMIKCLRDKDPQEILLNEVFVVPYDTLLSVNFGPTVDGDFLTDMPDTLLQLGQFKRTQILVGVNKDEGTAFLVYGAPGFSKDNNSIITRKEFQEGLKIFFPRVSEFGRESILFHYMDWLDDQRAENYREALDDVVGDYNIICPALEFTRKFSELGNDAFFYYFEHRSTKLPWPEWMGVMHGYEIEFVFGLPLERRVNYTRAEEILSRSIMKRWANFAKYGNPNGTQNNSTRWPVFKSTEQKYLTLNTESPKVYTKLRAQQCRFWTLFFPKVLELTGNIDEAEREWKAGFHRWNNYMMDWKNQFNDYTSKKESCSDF
Description: The following components were utilised:
Phosphate Buffer (0.1M, pH 7.4)
Made up to 500 ml with distilled H2 O, pH 7.4
1 ml of enzyme solution (i), was incubated with 2 ml PDS for 60 minutes at 0° C.
Components of the assay blank, controls and test solutions are provided below:
0.9 ml phosphate buffer (0.1M, pH 7.4)
0.85 ml phosphate buffer (0.1 M, pH 7.4)
0.05 ml Acetylthiocholine (5.2 mM)
as §1
Control was taken as 100%. Inhibitor was calculated as a percentage of control. A graph of Log of inhibitor conc. versus % control was plotted and IC50 values calculated by interpolation.

[4] = Table 3, read-out: 5-HT UPTAKE INHIBITION

T1 sequence (P37136 32-614): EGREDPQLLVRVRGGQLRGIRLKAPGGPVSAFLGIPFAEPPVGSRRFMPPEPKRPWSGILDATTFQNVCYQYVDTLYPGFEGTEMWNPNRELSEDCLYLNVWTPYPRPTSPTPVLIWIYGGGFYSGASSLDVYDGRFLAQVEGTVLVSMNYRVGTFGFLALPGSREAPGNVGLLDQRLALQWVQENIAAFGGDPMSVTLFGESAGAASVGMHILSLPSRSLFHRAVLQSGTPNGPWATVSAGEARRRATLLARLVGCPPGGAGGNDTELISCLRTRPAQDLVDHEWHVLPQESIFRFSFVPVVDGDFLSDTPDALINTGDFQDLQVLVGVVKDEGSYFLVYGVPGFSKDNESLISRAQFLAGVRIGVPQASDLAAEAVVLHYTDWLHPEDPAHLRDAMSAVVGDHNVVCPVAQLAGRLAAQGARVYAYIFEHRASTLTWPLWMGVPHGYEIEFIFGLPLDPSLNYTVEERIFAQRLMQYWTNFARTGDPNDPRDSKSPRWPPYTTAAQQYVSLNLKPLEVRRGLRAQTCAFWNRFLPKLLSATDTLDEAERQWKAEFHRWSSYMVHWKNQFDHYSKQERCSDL

| SMILES | pIC50 ([1]; Table 1, form SALT, ±SEM, n = 5, read-out: IC50 AChE) | pIC50 (5-HT (serotonin) uptake; Table 1, form SALT, n = 5, read-out: IC50 5HT UPTAKE) | pIC50 [2] | pIC50 ([1]; Table 1, form BASE, ±SEM, n = 5, read-out: IC50 AChE) | pIC50 (5-HT (serotonin) uptake; Table 1, form BASE, n = 5, read-out: IC50 5HT UPTAKE) | AChE TACRINE RATIO [1] | pIC50 ([1]; Table 2, read-out: AChE IC50) | BChE TACRINE RATIO [3] | pIC50 ([3]; read-out: BChE IC50) | 5-HT UPTAKE INHIBITION TACRINE RATIO (5-HT (serotonin) uptake) | pIC50 (5-HT (serotonin) uptake; [4]) | pIC50 ([3]; NB = No Block at 100 μM, read-out: BChE IC50 (no block)) | pIC50 [1] | AChE TACRINE RATIO ([1]; Table 2, relative to tacrine = 1.000) |
| --- | --- | --- | --- | --- | --- | --- | --- | --- | --- | --- | --- | --- | --- | --- |
| Nc1c2c(nc3ccccc13)-c1ccccc1C2 [Compound 2, 6-Amino-4,5-benzo-[5H]-cyclopenta-[1,2-b]-quinoline] | 6.46 | 5.66 | 5.64 |  |  |  |  |  |  |  |  |  |  |  |
| Nc1c2c(nc3ccccc13)CCCc1ccccc1-2 [Compound 7, 13-Amino 6.7 dihydro[1H] benz [7] annuleno [4,5-b]quinoline] |  |  |  | 4.42 | 7.70 |  |  |  |  |  |  |  |  |  |
| Nc1c2c(nc3cc(F)c(F)cc13)CCC2 [Compound 8, 9-amino-6,7-difluoro-2,3-dihydro-1H -cyclopenta [1,2-b] quinoline] |  |  |  |  |  | 2.229 | 7.46 | 0.003 | 5.00 | 3.800 | 5.70 |  |  |  |
| Nc1c2c(nc3cc(F)cc(F)c13)CCC2 [Compound 9, 9-Amino-6,8-difluoro-2.3-dihydro-1H -cyclopenta[1,2-b] quinoline] |  |  |  |  |  | 0.650 | 6.92 | 0.018 | 5.85 | 0.146 | 4.28 |  |  |  |
| Nc1c2c(nc3ccc(F)c(F)c13)CCC2 [Compound 10, 9-Amino-7,8-difluoro-2,3-dihydro-1-H-cyclopenta-[1,2-b] quinoline] |  |  |  |  |  | 0.190 | 6.39 | 0.002 | 4.82 | 0.029 | 3.59 |  |  |  |
| Nc1c2c(nc3cc(Cl)ccc13)CCC2 [Compound 17, 9-amino-6-chloro-2,3-dihydro-1H-cyclopenta[b] quinoline] |  |  |  |  |  | 8.041 | 8.00 | 0.19 | 6.89 | 5.067 | 5.82 |  |  |  |
| Nc1c2c(nc3ccc(F)cc13)CCCC2 [Compound 18, 9-Amino-7-fluoro-1,2,3,4-tetrahydro-acridine] |  |  |  |  |  | 0.390 | 6.70 | 0.061 | 6.39 | 3.304 | 5.64 |  |  |  |
| Cc1ccc(C)c2c(N)c3c(nc12)CCC3 [Compound 20, 9-Amino-5,8-dimethyl-2,3-dihydro-1H -cyclopenta [1,2-b] quinoline] |  |  |  |  |  | 0.041 | 5.72 | 0.018 | 5.85 | 1.949 | 5.41 |  |  |  |
| Cc1cccc2c(N)c3c(nc12)CCC3 [Compound 21, 9-Amino-5-methyl-2.3-dihydro-1H -cyclopenta[1,2-b] quinoline] |  |  |  |  |  | 0.024 | 5.48 | 0.002 | 4.86 | 0.633 | 4.92 |  |  |  |
| Cc1cc(C)c2nc3c(c(N)c2c1)CCC3 [Compound 23, 9-Amino-5-7-Dimethyl-2,3-dihydro-1H-cyclopenta [1,2-b] quinoline] |  |  |  |  |  | 0.004 | 4.72 |  | 4.28 | 0.962 | 5.10 |  |  |  |
| Cc1ccc2nc3c(c(N)c2c1)CCC3 [Compound 24, 9-Amino-7-methyl-2,3-dihydro-1H-cyclopenta [1,2-b] quinoline] |  |  |  |  |  | 0.012 | 5.17 | 0.023 | 5.96 | 0.447 | 4.77 |  |  |  |
| Nc1c2c(nc3ccc(Br)cc13)CCC2 [Compound 25, 9-Amino-7-bromo-2,3-dihydro-1H-cyclopenta-[1,2-b] quinoline] |  |  |  |  |  | 0.008 | 5.00 | 0.013 | 5.72 | 1.434 | 5.28 |  |  |  |
| Cc1ccc2c(N)c3c(nc2c1C)CCC3 [Compound 26, 9-Amino-5,6-dimethyl-2,3-dihydro-1H-cyclopenta [1,2-b] quinoline] |  |  |  |  |  | 0.007 | 4.94 | 0.003 | 5.04 | 1.727 | 5.36 |  |  |  |
| Nc1c2c(nc3ccc(F)cc13)-c1ccccc1CC2 [Compound 27, 7-Amino-9-fluoro-5,6-dihydrobenz[c] acridine] |  |  |  |  |  | 0.004 | 4.74 |  |  | 2.171 | 5.46 | < 4.00 |  |  |
| c1ccc(CNc2c3c(nc4ccccc24)CCC3)cc1 [Compound 28, N-(Phenylmethyl)-9-amino-2,3-dihydro-1H-cyclopenta[1,2-b] quinoline] |  |  |  |  |  |  |  | 0.002 | 4.86 | 1.310 | 5.24 |  | 4.40 | 0.002 |
| Cc1cc(C)c2c(N)c3c(nc2c1)CCC3 [Compound 30, 9-Amino-6,8-dimethyl-2,3-Dihydro-1H -cyclopenta [1,2-b] quinoline] |  |  |  |  |  | 0.600 | 6.89 | 0.035 | 6.15 | 0.938 | 5.09 |  |  |  |
| Nc1c2c(nc3c(F)ccc(F)c13)CCC2 [Compound 31, 9-Amino-5,8-difluoro-2,3-dihydro-1H-cyclopenta[1.2b] quinoline] |  |  |  |  |  | 0.166 | 6.33 | 0.005 | 5.32 |  |  |  |  |  |
| Nc1c2c(nc3c(F)cc(F)cc13)CCC2 [Compound 32, 9-Amino-5,7-difluoro-2.3dihydro-1H-cyclopenta[1,2b]quinoline] |  |  |  |  |  | 0.144 | 6.27 | 0.003 | 5.06 |  |  |  |  |  |
| Nc1c2c(nc3ccccc13)Cc1ccccc1CC2 [Compound 33, 13-amino 1,2-dihydro [1H] benz [7] annuleno [2,3-b] quinoline] |  |  |  |  |  | 0.002 | 4.44 |  |  | 0.400 | 4.74 |  |  |  |
| Nc1c2c(nc3ccc(F)cc13)-c1ccccc1C2 [Compound 34, 6-Amino-8-Fluoro-4,5-benzo-[5H]-cyclopenta-[1,2-b]-quinoline] |  |  |  |  |  | 0.030 | 5.54 |  |  | 0.400 | 4.74 |  |  |  |
| Nc1c2c(nc3ccc(Cl)cc13)-c1ccccc1C2 [Compound 35, 6-Amino-8-chloro-4,5-benzo-[5H]-cyclopenta-[1,2-b]-quinoline] |  |  |  |  |  |  | < 4.00 |  |  | 0.070 | 3.94 |  |  |  |
| COc1ccc2nc3c(c(N)c2c1)Cc1ccccc1-3 [Compound 36, 6-Amino-8-methoxy-4,5-benzo-[5H]-cyclopenta-[1,2-b]-quinoline] |  |  |  |  |  | 0.002 | 4.33 |  |  | 0.300 | 4.54 |  |  |  |

Source: US6130228A, “Polycyclic compounds” (priority 1995, dated 2000)
